What is called EC50 is the midpoint of the concentration-response curve. What is called Emax is the greatest response seen or fitted, relative to the assay's reference.

These results are taken from patent US20240208992A1, “MACROCYCLES AS CFTR MODULATORS” (Idorsia Pharmaceuticals Ltd, priority 2021, published 2024).

The test addresses human F508del-CFTR (Homo sapiens, UniProt P13569, DEL508-508). The test is described as follows: F508del-CFTR cell surface expression (corrector activity), DiscoveRx ß-galactosidase complementation chemiluminescence assay in recombinant U2OS cell line.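 For all read-outs here: U2OS cells co-expressing ProLink-tagged F508del-CFTR and a membrane-anchored enzyme acceptor, where more surface CFTR restores β-galactosidase activity measured by chemiluminescence.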 Particulars: U2OS cell line, 16h compound incubation; for EC50: EC50, F508del-CFTR cell surface expression, geomean values; for Emax: U2OS, in relation to the Emax of the corrector lumacaftor (=100%), arithmetic mean values.

Chain of human F508del-CFTR (P13569 with tags, fused parts or gaps DEL508-508): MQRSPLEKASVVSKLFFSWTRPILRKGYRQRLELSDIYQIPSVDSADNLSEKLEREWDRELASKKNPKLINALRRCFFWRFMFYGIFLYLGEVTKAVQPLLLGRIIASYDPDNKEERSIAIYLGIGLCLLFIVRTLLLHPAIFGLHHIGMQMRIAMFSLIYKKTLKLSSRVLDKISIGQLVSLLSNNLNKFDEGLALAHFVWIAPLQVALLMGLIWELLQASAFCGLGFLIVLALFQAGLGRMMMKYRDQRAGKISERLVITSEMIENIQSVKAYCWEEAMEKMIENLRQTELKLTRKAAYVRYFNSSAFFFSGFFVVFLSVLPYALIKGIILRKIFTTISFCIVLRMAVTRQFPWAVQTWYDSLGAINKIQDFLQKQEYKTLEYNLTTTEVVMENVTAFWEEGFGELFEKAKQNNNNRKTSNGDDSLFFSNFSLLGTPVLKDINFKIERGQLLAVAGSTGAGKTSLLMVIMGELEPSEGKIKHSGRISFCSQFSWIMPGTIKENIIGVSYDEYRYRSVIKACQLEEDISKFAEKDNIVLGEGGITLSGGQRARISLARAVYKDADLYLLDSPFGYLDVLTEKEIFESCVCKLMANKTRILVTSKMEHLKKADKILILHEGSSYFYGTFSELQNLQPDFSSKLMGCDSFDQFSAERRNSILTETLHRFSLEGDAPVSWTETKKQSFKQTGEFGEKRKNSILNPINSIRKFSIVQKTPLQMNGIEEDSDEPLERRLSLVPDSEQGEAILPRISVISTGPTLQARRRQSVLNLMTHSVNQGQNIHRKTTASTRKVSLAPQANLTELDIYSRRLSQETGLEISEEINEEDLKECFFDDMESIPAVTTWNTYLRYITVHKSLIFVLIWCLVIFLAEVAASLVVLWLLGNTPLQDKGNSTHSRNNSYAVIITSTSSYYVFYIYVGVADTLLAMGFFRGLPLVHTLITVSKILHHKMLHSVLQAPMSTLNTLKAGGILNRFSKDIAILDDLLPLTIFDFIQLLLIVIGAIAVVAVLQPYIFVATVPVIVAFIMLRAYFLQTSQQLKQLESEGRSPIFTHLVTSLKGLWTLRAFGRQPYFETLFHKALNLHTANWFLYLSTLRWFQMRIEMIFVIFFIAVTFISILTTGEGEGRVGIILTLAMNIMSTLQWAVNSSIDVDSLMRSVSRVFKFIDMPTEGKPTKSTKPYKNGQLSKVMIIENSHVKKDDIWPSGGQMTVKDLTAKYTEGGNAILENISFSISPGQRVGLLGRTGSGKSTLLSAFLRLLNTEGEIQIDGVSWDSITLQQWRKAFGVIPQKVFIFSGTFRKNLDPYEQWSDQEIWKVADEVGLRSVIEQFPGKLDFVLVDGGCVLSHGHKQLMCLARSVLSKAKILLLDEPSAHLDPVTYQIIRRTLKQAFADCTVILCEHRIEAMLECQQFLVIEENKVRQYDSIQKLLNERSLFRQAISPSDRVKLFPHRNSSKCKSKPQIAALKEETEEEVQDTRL

As for `CC(C)C[C@H]1C(=O)N2CCOC[C@@H]2C(=O)N[C@H](Cc2ccccc2)COc2ccc3ccccc3c2C(=O)N[C@H](C(=O)NCCc2nc3c(s2)CCC3)CC(=O)N1C` [Example 370, (4aR,7R,18S,22S)-7-benzyl-N-(2-(5,6-dihydro-4H-cyclopenta[d]thiazol-2-yl)ethyl)-22-isobutyl-21-methyl-5,16,20,23-tetraoxo-1,2,4,4a,5,6,7,8,16,17,18,19,20,21,22,23-hexadecahydronaphtho[1,2-p][1,4]oxazino[3,4-f][1]oxa[4,7,10,14]tetraazacycloheptadecine-18-carboxamide], the EC50 was found to be 388 nM and the Emax came to 229%.
For `CC(C)C[C@H]1C(=O)N2CCOC[C@@H]2C(=O)N[C@H](Cc2ccccc2)COc2ccc3ccccc3c2C(=O)N[C@H](C(=O)NCCc2cccc(OC(F)F)c2)CC(=O)N1C` [Example 371, (4aR,7R,18S,22S)-7-benzyl-N-(3-(difluoromethoxy)phenethyl)-22-isobutyl-21-methyl-5,16,20,23-tetraoxo-1,2,4,4a,5,6,7,8,16,17,18,19,20,21,22,23-hexadecahydronaphtho[1,2-p][1,4]oxazino[3,4-f][1]oxa[4,7,10,14]tetraazacycloheptadecine-18-carboxamide], in that order: 226 nM and 180%.
For `COc1cccc(CCNC(=O)[C@@H]2CC(=O)N(C)[C@@H](CC(C)C)C(=O)N3CCN(CC(C)C)C[C@@H]3C(=O)N[C@H](Cc3ccccc3)COc3cnc4ccccc4c3C(=O)N2)c1` [Example 372, (9S,13S,19aR,22R)-22-benzyl-13,18-diisobutyl-N-(3-methoxyphenethyl)-12-methyl-7,11,14,20-tetraoxo-7,8,9,10,11,12,13,14,17,18,19,19a,20,21,22,23-hexadecahydro-16H-pyrazino[2′,11:6,7][1]oxa[4,7,10,14]tetraazacycloheptadecino[17,16-c]quinoline-9-carboxamide], in that order: 72 nM and 360%.
The corresponding values for `COc1cccc(CCNC(=O)[C@@H]2CC(=O)N(C)[C@@H](CC(C)C)C(=O)N3CCN(CC(C)C)C[C@H]3C(=O)N[C@H](Cc3ccccc3)COc3cnc4ccccc4c3C(=O)N2)c1` [Example 373, (9S,13S,19aS,22R)-22-benzyl-13,18-diisobutyl-N-(3-methoxyphenethyl)-12-methyl-7,11,14,20-tetraoxo-7,8,9,10,11,12,13,14,17,18,19,19a,20,21,22,23-hexadecahydro-16H-pyrazino[2′,11:6,7][1]oxa[4,7,10,14]tetraazacycloheptadecino[17,16-c]quinoline-9-carboxamide] are 200 nM and 149%.
Take `COc1cccc(CCNC(=O)[C@@H]2CC(=O)N(C)[C@@H](CC(C)C)C(=O)N3CCN(C(C)C)C[C@@H]3C(=O)N[C@H](Cc3ccccc3)COc3cnc4ccccc4c3C(=O)N2)c1` [Example 374, (9S,13S,19aR,22R)-22-benzyl-13-isobutyl-18-isopropyl-N-(3-methoxyphenethyl)-12-methyl-7,11,14,20-tetraoxo-7,8,9,10,11,12,13,14,17,18,19,19a,20,21,22,23-hexadecahydro-16H-pyrazino[2′,1′:6,7][1]oxa[4,7,10,14]tetraazacycloheptadecino[17,16-c]quinoline-9-carboxamide]: the EC50 is 102 nM and the Emax was 333%.
For `Cc1cc(CCNC(=O)[C@@H]2CC(=O)N(C)[C@@H](CC(C)C)C(=O)N3CCN(C(C)C)C[C@@H]3C(=O)N[C@H](Cc3ccccc3)COc3cnc4ccccc4c3C(=O)N2)on1` [Example 375, (9S,13S,19aR,22R)-22-benzyl-13-isobutyl-18-isopropyl-12-methyl-N-(2-(3-methylisoxazol-5-yl)ethyl)-7,11,14,20-tetraoxo-7,8,9,10,11,12,13,14,17,18,19,19a,20,21,22,23-hexadecahydro-16H-pyrazino[2′,1′:6,7][1]oxa[4,7,10,14]tetraazacycloheptadecino[17,16-c]quinoline-9-carboxamide], in that order: 461 nM and 316%.
The corresponding values for `COc1cccc(CCNC(=O)[C@@H]2CC(=O)N(C)[C@@H](CC(C)C)C(=O)N3CC=CC[C@@H]3C(=O)N[C@H](Cc3ccccc3)COc3ccc4ccccc4c3C(=O)N2)c1` [Example 376, (4aR,7R,18S,22S)-7-benzyl-22-isobutyl-N-(3-methoxyphenethyl)-21-methyl-5,16,20,23-tetraoxo-4,4a,5,6,7,8,16,17,18,19,20,21,22,23-tetradecahydro-1H-naphtho[1,2-p]pyrido[2,1-f][1]oxa[4,7,10,14]tetraazacycloheptadecine-18-carboxamide] are 156 nM and 284%.
The corresponding values for `COc1cc(CCNC(=O)[C@@H]2CC(=O)N(C)[C@@H](CC(C)C)C(=O)N3CCCC[C@@H]3C(=O)N[C@H](Cc3ccccc3)COc3ccc4nc(C)n(C)c4c3C(=O)N2)cc(OC)c1` [Example 377, (8S,12S,18aR,21R)-21-benzyl-N-(3,5-dimethoxyphenethyl)-12-isobutyl-4,5,11-trimethyl-6,10,13,19-tetraoxo-6,7,8,9,10,11,12,13,16,17,18,18a,19,20,21,22-hexadecahydro-5H,15H-imidazo[4′,5′:5,6]benzo[1,2-p]pyrido[2,1-f][1]oxa[4,7,10,14]tetraazacycloheptadecine-8-carboxamide] are 704 nM and 111%.
Regarding `CC(C)C[C@H]1C(=O)N2CCOC[C@@H]2C(=O)N[C@H](Cc2ccccc2)COc2ccc3ccccc3c2C(=O)N[C@H](C(=O)NCCc2cccc(Br)c2)CC(=O)N1C` [Example 378, (4aR,7R,18S,22S)-7-benzyl-N-(3-bromophenethyl)-22-isobutyl-21-methyl-5,16,20,23-tetraoxo-1,2,4,4a,5,6,7,8,16,17,18,19,20,21,22,23-hexadecahydronaphtho[1,2-p][1,4]oxazino[3,4-f][1]oxa[4,7,10,14]tetraazacycloheptadecine-18-carboxamide], the EC50 came out at 45 nM and the Emax worked out at 138%.
The corresponding values for `Cc1nc2ccc3c(c2o1)C(=O)N[C@H](C(=O)NCCc1ccc2c(c1)OCO2)CC(=O)N(C)[C@@H](CC(C)C)C(=O)N(CCC1CCCCC1)CC(=O)N[C@H](Cc1ccccc1)CO3` [Example 379, (8R,14S,18S)-N-(2-(benzo[d][1,3]dioxol-5-yl)ethyl)-8-benzyl-12-(2-cyclohexylethyl)-14-isobutyl-2,15-dimethyl-10,13,16,20-tetraoxo-7,8,9,10,11,12,13,14,15,16,17,18,19,20-tetradecahydrooxazolo[4′,5′:5,6]benzo[1,2-p][1]oxa[4,7,10,14]tetraazacycloheptadecine-18-carboxamide] are 76 nM and 312%.
For `COc1cccc(CCNC(=O)[C@@H]2CC(=O)N(C)[C@@H](CC(C)C)C(=O)N(CCC3CCCCC3)CC(=O)N[C@H](Cc3ccccc3)COc3ccc4nc(C)oc4c3C(=O)N2)c1` [Example 380, (8R,14S,18S)-8-benzyl-12-(2-cyclohexylethyl)-14-isobutyl-N-(3-methoxyphenethyl)-2,15-dimethyl-10,13,16,20-tetraoxo-7,8,9,10,11,12,13,14,15,16,17,18,19,20-tetradecahydrooxazolo[4′,5′:5,6]benzo[1,2-p][1]oxa[4,7,10,14]tetraazacycloheptadecine-18-carboxamide], in that order: 65 nM and 325%.
The corresponding values for `[2H]C([2H])([2H])Oc1cccc(CCNC(=O)[C@@H]2CC(=O)N(C)[C@@H](CC(C)C)C(=O)N(CCC3CCCCC3)CC(=O)N[C@H](Cc3ccccc3)COc3ccc4nc(C)oc4c3C(=O)N2)c1` [Example 381, (8R,14S,18S)-8-benzyl-12-(2-cyclohexylethyl)-14-isobutyl-N-(3-(methoxy-d3)phenethyl)-2,15-dimethyl-10,13,16,20-tetraoxo-7,8,9,10,11,12,13,14,15,16,17,18,19,20-tetradecahydrooxazolo[4′,5′:5,6]benzo[1,2-p][1]oxa[4,7,10,14]tetraazacycloheptadecine-18-carboxamide] are 68 nM and 322%.
Turning to `CC(C)C[C@H]1C(=O)N(CCC2CCCCC2)CC(=O)N[C@H](Cc2ccccc2)COc2cnc3c(F)cccc3c2C(=O)N[C@H](C(=O)NCCc2ccc3c(c2)OCO3)CC(=O)N1C` [Example 382, (3S,7S,13R)-N-(2-(benzo[d][1,3]dioxol-5-yl)ethyl)-13-benzyl-9-(2-cyclohexylethyl)-18-fluoro-7-isobutyl-6-methyl-1,5,8,11-tetraoxo-1,2,3,4,5,6,7,8,9,10,11,12,13,14-tetradecahydro-[1]oxa[4,7,10,14]tetraazacycloheptadecino[17,16-c]quinoline-3-carboxamide], the EC50 was found to be 44 nM and the Emax worked out at 264%.
For `COc1cccc(CCNC(=O)[C@@H]2CC(=O)N(C)[C@@H](CC(C)C)C(=O)N(CCC3CCCCC3)CC(=O)N[C@H](Cc3ccccc3)COc3cnc4c(F)cccc4c3C(=O)N2)c1` [Example 383, (3S,7S,13R)-13-benzyl-9-(2-cyclohexylethyl)-18-fluoro-7-isobutyl-N-(3-methoxyphenethyl)-6-methyl-1,5,8,11-tetraoxo-1,2,3,4,5,6,7,8,9,10,11,12,13,14-tetradecahydro-[1]oxa[4,7,10,14]tetraazacycloheptadecino[17,16-c]quinoline-3-carboxamide], in that order: 65 nM and 317%.
As to `[2H]C([2H])([2H])Oc1cccc(CCNC(=O)[C@@H]2CC(=O)N(C)[C@@H](CC(C)C)C(=O)N(CCC3CCCCC3)CC(=O)N[C@H](Cc3ccccc3)COc3cnc4c(F)cccc4c3C(=O)N2)c1` [Example 384, (3S,7S,13R)-13-benzyl-9-(2-cyclohexylethyl)-18-fluoro-7-isobutyl-N-(3-(methoxy-d3)phenethyl)-6-methyl-1,5,8,11-tetraoxo-1,2,3,4,5,6,7,8,9,10,11,12,13,14-tetradecahydro-[1]oxa[4,7,10,14]tetraazacycloheptadecino[17,16-c]quinoline-3-carboxamide], the EC50 worked out at 54 nM and the Emax stood at 282%.
